Values joined by “and” are separate entries in the source; they are usually repeats but may differ in a detail not shown here. Equal values may be shown once.
Tests used:
[1] = xn = mol fraction of the nth substance listed

CC(=O)OCc1ccccc1
Conditions | viscosity [mPa·s]
323.15 K, 101.33 kPa | 1.23

CC(C)C(=O)O
viscosity [mPa·s]
Conditions | 293.15 K | 301.15 K | 302.15 K | 303.15 K | 305.15 K | 308.15 K | 311.15 K | 313.15 K | 315.15 K
101 kPa | – | 1.168 | 1.148 | – | 1.099 | 1.047 | 1.008 | 0.9841 | 0.9512
101.33 kPa | 1.326 | – | – | 1.12 | – | – | – | 1.004 | –

CCCCCCCCCC(=O)OC
100 kPa
Conditions | viscosity [mPa·s]
293.15 K | 2.115
298.15 K | 1.919
303.15 K | 1.745
318.15 K | 1.345
323.15 K | 1.243

CCCCCCCCCCCCCCCC
Conditions | viscosity [mPa·s]
293.15 K, 100 kPa | 3.408
293.15 K, 101 kPa | 3.408
293.15 K, 102 kPa | 3.48
293.2 K, 101.3 kPa | 3.507
298.15 K, 101 kPa | 3.002
303.15 K, 101 kPa | 2.703
303.2 K, 101.3 kPa | 2.78
308.15 K, 101.33 kPa | 2.381
318.15 K, 100 kPa | 1.996
318.15 K, 101 kPa | 1.996
318.15 K, 101.33 kPa | 1.92
318.16 K, 101 kPa | 2.039
323.15 K, 102 kPa | 1.85

CCCCCCCCCCCCCC[P+](CCCC)(CCCC)CCCC.CCCCCCCCCCCCc1ccccc1S(=O)(=O)[O-]
101 kPa
Conditions | viscosity [mPa·s]
313.15 K | 1480
323.15 K | 750

CCCC[N+]1(C)CCCCC1.O=S(=O)([N-]S(=O)(=O)C(F)(F)F)C(F)(F)F
Conditions | viscosity [mPa·s]
298.15 K, 101 kPa | 178.5

CCOCCOCC
101.33 kPa
Conditions | viscosity [mPa·s]
298.15 K | 0.602
308.15 K | 0.522

CC[n+]1ccn(C)c1.COS(=O)(=O)[O-]
101 kPa
Conditions | viscosity
293.15 K | 84.14 mPa·s
298.15 K | 84.3 mPa·s and 68.5 mPa·s
303.15 K | 68.7 mPa·s and 55.4 mPa·s and 57.93 mPa·s
308.15 K | 56.7 mPa·s and 45.5 mPa·s
313.15 K | 47.6 mPa·s and 37.9 mPa·s and 39.54 mPa·s
323.15 K | 28.33 mPa·s

CCn1cc[n+](C)c1.C[C@H](N)C(=O)[O-]
101 kPa
Conditions | viscosity [mPa·s]
308.15 K | 137.5
313.15 K | 103.5

ClC(Cl)Cl
Conditions | viscosity
293.15 K, 101.33 kPa | 0.5659 mPa·s
293.16 K, 101 kPa | 0.563 mPa·s
298 K, 101 kPa | 0.5427 mPa·s
298 K, 101.33 kPa | 0.538 mPa·s
298.16 K, 101 kPa | 0.542 mPa·s
303 K, 101.3 kPa | 0.5254 mPa·s and 0.5249 mPa·s
303 K, 101.33 kPa | 0.517 mPa·s
303.15 K, 101.3 kPa | 0.5129 mPa·s and 0.5129 mPa·s and 0.5033 mPa·s
303.15 K, 101.33 kPa | 0.514 mPa·s and 0.471 mPa·s
303.16 K, 101 kPa | 0.514 mPa·s
303.75 K, 101 kPa | 0.5393 mPa·s
308 K, 101 kPa | 0.4881 mPa·s
308.15 K, 101 kPa | 0.482 mPa·s
308.15 K, 101.33 kPa | 0.452 mPa·s and 0.5065 mPa·s and 0.485 mPa·s
311 K, 101.3 kPa | 0.4893 mPa·s and 0.4893 mPa·s
313 K, 101.33 kPa | 0.479 mPa·s
313.15 K, 101 kPa | 0.472 mPa·s and 0.4891 mPa·s and 0.557 mPa·s
318 K, 101 kPa | 0.4487 mPa·s
318.15 K, 101.33 kPa | 0.442 mPa·s
319 K, 101.3 kPa | 0.4566 mPa·s and 0.4571 mPa·s
323 K, 101.33 kPa | 0.447 mPa·s
323.15 K, 101 kPa | 0.491 mPa·s
323.15 K, 101.33 kPa | 0.4473 mPa·s

FC(F)Cl
101 kPa
Conditions | viscosity [mPa·s]
293.25 K | 0.1758
313.35 K | 0.1381

O=C(O)CCl
Conditions | viscosity [mPa·s]
323.15 K, 101 kPa | 3.091

O=CC(Cl)(Cl)Cl
viscosity
Conditions | 298.15 K | 308.15 K | 313.15 K | 318.15 K | 323.15 K
101 kPa | 1.055 mPa·s and 1.055 mPa·s (2×) | 0.9017 mPa·s | 1.009 mPa·s and 0.8411 mPa·s | 0.934 mPa·s | 0.764 mPa·s and 0.7641 mPa·s and 0.869 mPa·s
101.33 kPa | 1.055 mPa·s | – | – | – | 0.7641 mPa·s

OCC(F)(F)C(F)(F)F
100 kPa
Conditions | viscosity [mPa·s]
298.15 K | 3.367
323.15 K | 1.518

O=C(O)CCl + Oc1ccccc1
[1], 323.15 K, 101 kPa
Conditions | viscosity [mPa·s]
x2 = 0.1128 | 3.125
x2 = 0.1918 | 3.113
x2 = 0.26 | 3.103
x2 = 0.3059 | 3.112
x2 = 0.405 | 3.121
x2 = 0.5113 | 3.142
x2 = 0.606 | 3.203
x2 = 0.6735 | 3.242
x2 = 0.7037 | 3.277
x2 = 0.7567 | 3.308
x2 = 0.8216 | 3.338
x2 = 0.903 | 3.353

CC(C)C(=O)O + [2H]O[2H]
[1], 101 kPa, x1 = 0.111
Conditions | viscosity
318.1 K | 2.122 mPa·s and 2.132 mPa·s and 2.14 mPa·s
318.11 K | 2.112 mPa·s
318.12 K | 2.092 mPa·s
318.13 K | 2.074 mPa·s
318.14 K | 2.06 mPa·s
318.15 K | 2.046 mPa·s
318.17 K | 2.018 mPa·s
318.19 K | 2.011 mPa·s
318.2 K | 1.997 mPa·s
318.23 K | 1.973 mPa·s
318.26 K | 1.956 mPa·s
318.29 K | 1.944 mPa·s
318.3 K | 1.934 mPa·s
318.36 K | 1.912 mPa·s
318.39 K | 1.902 mPa·s
318.48 K | 1.876 mPa·s
318.56 K | 1.857 mPa·s
318.66 K | 1.838 mPa·s
318.69 K | 1.833 mPa·s
318.98 K | 1.788 mPa·s
319.21 K | 1.763 mPa·s
319.69 K | 1.717 mPa·s
320.21 K | 1.677 mPa·s
321.2 K | 1.615 mPa·s
322.2 K | 1.562 mPa·s

CCCCCCCCCCCCCCCC + c1ccccc1
[1]
Conditions | viscosity
298 K, 101 kPa, x2 = 0.5 | 1.65 mPa·s and 1.651 mPa·s
298.15 K, 101.33 kPa, x1 = 0.0535 | 0.6803 mPa·s
298.15 K, 101.33 kPa, x1 = 0.09944 | 0.7563 mPa·s
298.15 K, 101.33 kPa, x1 = 0.2199 | 0.9761 mPa·s
298.15 K, 101.33 kPa, x1 = 0.3234 | 1.161 mPa·s
298.15 K, 101.33 kPa, x1 = 0.4341 | 1.429 mPa·s
298.15 K, 101.33 kPa, x1 = 0.5194 | 1.649 mPa·s
298.15 K, 101.33 kPa, x1 = 0.641 | 1.972 mPa·s
298.15 K, 101.33 kPa, x1 = 0.6928 | 2.107 mPa·s
298.15 K, 101.33 kPa, x1 = 0.8361 | 2.492 mPa·s
298.15 K, 101.33 kPa, x1 = 0.9416 | 2.887 mPa·s
318 K, 101 kPa, x2 = 0.5 | 1.192 mPa·s and 1.193 mPa·s
